# Laboratory results reported in patent publication US20040152904A1, “Delta1 pyrrolines” (priority 2001, published 2004).
# Experiments:
# Lucilia cuprina larvae = test: Blowfly larvae test / development-inhibitory action; assay type: in vivo; settings: 100 ppm active compound
# Description: Blowfly Larvae Test/Development-Inhibitory Action Test animals: Lucilia cuprina larvae Solvent: Dimethyl sulphoxide 20 mg of active compound are dissolved in 1 ml of dimethyl sulphoxide, more dilute concentrations are prepared by dilution with distilled water. About 20 Lucilia cuprina larvae are introduced into a test tube which contains about 1 cm^3 of horse meat and 0.5 ml of the preparation of active compound to be tested. The efficacy of the preparation of active compound is determined after 24 and 48 hours. The test tubes are transferred into beakers whose bottom is covered with sand. After a further 2 days, the test tubes are removed and the pupae are counted. The activity of the preparation of active compound is assessed by the number of flies that have hatched after 1.5 times the development time of an untreated control. 100% means that no flies have hatched; 0% means that all flies have hatched normally.
# [1] = system: caterpillars of the diamond-back moth (Plutella xylostella); test: Plutella test; assay type: in vivo; settings: 40 ppm active compound, cabbage leaves dipped
# Description: Plutella Test Solvent: 30 parts by weight of dimethylformamide Emulsifier: 1 part by weight of alkylaryl polyglycol ether To produce a suitable preparation of active compound, 1 part by weight of active compound is mixed with the stated amounts of solvent and emulsifier, and the concentrate is diluted with emulsifier-containing water to the desired concentration. Cabbage leaves (Brassica oleracea) are treated by being dipped into the preparation of active compound of the desired concentration and are populated with caterpillars of the diamond-back moth (Plutella xylostella) whilst the leaves are still moist. After the desired period of time, the kill in % is determined. 100% means that all caterpillars have been killed; 0% means that none of the caterpillars have been killed.
Compound,Kill rate in % after 48h (Lucilia cuprina larvae) [%],Kill rate in % after 6d [1] [%]
CCOCn1nnc(-c2ccc(-c3ccc(C4CCC(c5c(F)cccc5F)=N4)cc3)cc2)n1 (stereo not drawn) [drawing 72],70,
CCn1nnc(-c2ccc(-c3ccc(C4CCC(c5c(F)cccc5F)=N4)cc3)cc2)n1 (stereo not drawn) [drawing 71],100,
CC(C)(C)n1nnc(-c2ccc(-c3ccc(C4CCC(c5c(F)cccc5F)=N4)cc3)cc2)n1 (stereo not drawn) [drawing 60],,100
